Literature values in patent US20240307352A1, “SACUBITRIL VALSARTAN SODIUM SUSTAINED-RELEASE COMPOSITION, AND PREPARATION METHOD THEREFOR AND USE THEREOF” (SHANGHAI AURORA BIOTECHNOLOGY CO., LTD., priority 2021, published 2024).

System: patients with heart failure with reduced ejection fraction (HF-REF)
Conditions: compared to enalapril-treated counterpart

octadecasodium hexa(4-{[(1S,3R)-1-([1,1′-biphenyl)-4-ylmethyl)-4-ethoxy-3-methyl-4-oxobutyl]amino}-4-oxobutyric acid) hexa(N-pentanoyl-N-{[2′-(1H-tetrazol-5-yl)biphenyl-4-yl]methyl}-L-valine)-hydrate (1/15) [LCZ696]
Reduction in death risk: 20%
Reduction in hospitalization risk: 21%
